Measured values: patent US5998442A, “Benzo [B] thiophene compounds, and compositions for treating bone loss, and hyperlipidemia” (Eli Lilly and Company, priority 1997, dated 1999)

Tests used:
[1] = system: Uterine Eosinophil Peroxidase (EPO); assay: Uterine Eosinophil Peroxidase (EPO) Assay in ovariectomized rats; assay type: in vivo, rat (female Sprague Dawley); parameters: Uterine EPO (Vmax): unit not given here
From the text: (§1) Seventy-five day old female Sprague Dawley rats (weight range of 200 to 225 g) were obtained from Charles River Laboratories (Portage, Mich.). The animals were either bilaterally ovariectomized (OVX) or exposed to a Sham surgical procedure at Charles River Laboratories, and then shipped after one week. Upon arrival, they were housed in metal hanging cages in groups of 3 or 4 per cage and had ad libitum access to food (calcium content approximately 0.5%) and water for one week. Room temperature was maintained at 22.2°±1.70° C. with a minimum relative humidity of 40%. The photoperiod in the room was 12 hours light and 12 hours dark.
(§2) After a one week acclimation period (therefore, two weeks post-OVX) daily dosing with test compound was initiated. […] Animals were dosed daily for 4 days. Following the dosing regimen, animals were weighed and anesthetized with a ketamine: Xylazine (2:1, V:V) mixture and a blood sample was collected by cardiac puncture. The animals were then sacrificed by asphyxiation with CO2, the uterus was removed through a midline incision, and a wet uterine weight was determined.
Uteri were kept at 4° C. until time of enzymatic analysis. The uteri were then homogenized in 50 volumes of 50 mM Tris buffer (pH-8.0) containing 0.005% Triton X-100. Upon addition of 0.01% hydrogen peroxide and 10 mM O-phenylenediamine (final concentrations) in Tris buffer, increase in absorbance was monitored for one minute at 450 nm. The presence of eosonophils in the uterus is an indication of estrogenic activity of a compound. The maximal velocity of a 15 second interval was determined over the initial, linear portion of the reaction curve.
As is expressed in the data below, estrogenicity also was assessed by evaluating the adverse response of eosinophil infiltration into the uterus.
(§3) The data presented in Table 1 below reflects the response of 5 to 6 rats per treatment.

[2] = system: serum cholesterol, ovariectomized rats; assay: Serum cholesterol in ovariectomized rats (4 days daily oral dosing); assay type: in vivo, rat (female Sprague Dawley); details: Rattus norvegicus, 96 h, read-out: Serum Cholesterol (% decrease vs. OVX); for inhibition in vivo at 0.1 mg/kg: 0.1 mg/kg PO; for inhibition in vivo at 1 mg/kg: 1.0 mg/kg PO; for inhibition in vivo at 10 mg/kg: 10.0 mg/kg PO
Description: (§4) In the examples illustrating the methods, a postmenopausal model was used in which effects of different treatments upon circulating lipids were determined.
as §1, §2
Blood samples were allowed to clot at room temperature for 2 hours, and serum was obtained following centrifugation for 10 minutes at 3000 rpm. Serum cholesterol was determined using a Boehringer Mannheim Diagnostics high performance cholesterol assay. Briefly the cholesterol was oxidized to cholest-4-en-3-one and hydrogen peroxide. The hydrogen peroxide was then reacted with phenol and 4-aminophenazone in the presence of peroxidase to produce a p-quinone imine dye, which was read spectrophotemetrically at 500 nm. Cholesterol concentration was then calculated against a standard curve. The entire assay was automated using a Biomek Automated Workstation. […]
as §3

[3] = system: MCF-7 breast adenocarcinoma cells; assay: MCF-7 Proliferation Assay (tritiated thymidine); assay type: cell-based; details: Homo sapiens, MCF7, 48 hours, read-out: IC50
Description: MCF-7 breast adenocarcinoma cells (ATCC HTB 22) were maintained in MEM (minimal essential medium, phenol red-free, Sigma, St. Louis, Mo.) supplimented with 10% fetal bovine serum (FBS) (V/V), L-glutamine (2 mM), sodium pyruvate (1 mM), HEPES {(N-[2-hydroxyethyl]piperazine-N'-[2-ethanesulfonic acid]10 mM}, non-essential amino acids and bovine insulin (1 ug/mL) (maintenance medium). Ten days prior to assay, MCF-7 cells were switched to maintenance medium supplemented with 10% dextran coated charcoal stripped fetal bovine serum (DCC-FBS) assay medium) in place of 10% FBS to deplete internal stores of steroids. MCF-7 cells were removed from maintenance flasks using cell dissociation medium (Ca++/Mg++ free HBSS (phenol red-free) supplemented with 10 mM HEPES and 2 mM EDTA). Cells were washed twice with assay medium and adjusted to 80,000 cells/mL. Approximately […] (8,000 cells) were added to flat-bottom microculture wells (Costar 3596) and incubated at 37° C. in a 5% CO2 humidified incubator for 48 hours to allow for cell adherence and equilibration after transfer. Serial dilutions of drugs or DMSO as a diluent control were prepared in assay medium and […] to triplicate microcultures followed by […] assay medium for a final volume of […]. After an additional 48 hours at 37° C. in a 5% CO2 humidified incubator, microcultures were pulsed with tritiated thymidine (1 uCi/well) for 4 hours. Cultures were terminated by freezing at -70° C. for 24 hours followed by thawing and harvesting of microcultures using a Skatron Semiautomatic Cell Harvester. Samples were counted by liquid scintillation using a Wallac BetaPlace b counter. Results in Table 4 below show the IC50 for certain compounds of the instant invention. […]

[4] = system: uterus, ovariectomized rats; assay: Uterine weight in ovariectomized rats (4 days daily oral dosing); assay type: in vivo, rat (female Sprague Dawley); details: Rattus norvegicus, 96 h, read-out: Uterine weight (% increase vs. OVX); for change in vivo at 0.1 mg/kg: 0.1 mg/kg PO; for change in vivo at 1 mg/kg: 1.0 mg/kg PO; for change in vivo at 10 mg/kg: 10.0 mg/kg PO
Description: as §4, §1, §2
This uterine response to estrogen is well recognized in the art.
as §3

Row | Structure (SMILES) | Uterine EPO (Vmax) ([1]; 0.1 mg/kg PO) | Uterine EPO (Vmax) ([1]; 1.0 mg/kg PO) | Uterine EPO (Vmax) ([1]; 10.0 mg/kg PO) | inhibition in vivo at 0.1 mg/kg [2] [%] | inhibition in vivo at 1 mg/kg [2] [%] | inhibition in vivo at 10 mg/kg [2] [%] | IC50 [3] [nM] | change in vivo at 0.1 mg/kg [4] [%] | change in vivo at 1 mg/kg [4] [%] | change in vivo at 10 mg/kg [4] [%]
1 | COc1cc(O)ccc1-c1sc2cc(O)ccc2c1C(=O)c1ccc(OCCN2CCCCC2)cc1 [Example 18, [2-(4-Hydroxy-2-methoxyphenyl)-6-hydroxybenzo[b]thien-3-yl] [4-[2-(1-piperidinyl)ethoxy]phenyl]methanone] | 34.2 | 81.9 | 135.9 | 58.8 | 79 | 71.6 | 2 | 64.1 | 69.2 | 73.3
2 | Cc1cc(-c2sc3cc(O)ccc3c2C(=O)c2ccc(OCCN3CCCCC3)cc2)ccc1O [Example 7, [2-(3-Methyl-4-hydroxyphenyl)-6-hydroxybenzo[b]thien-3-yl][4-[2-(1-piperidinyl)ethoxy]phenyl]methanone] | 4.9 | 2.5 | 2.8 | 53.7 | 77.6 | 49.7 | 1 | 7.6 | 15.6 | 24.6
3 | COc1ccc(-c2sc3cc(OC)ccc3c2C(=O)c2ccc(OCCN3CCCCC3)cc2)c(OC)c1 [Example 17, [2-(2,4-Dimethoxyphenyl)-6-methoxybenzo[b]thien-3-yl] [4-[2-(1-piperidinyl)ethoxy]phenyl]methanone] | 20.4 | 102.0 | 20.1 | 51.4 | 68.5 | 67.2 | 300 | 40.1 | 66.1 | 53.7
4 | O=C(c1ccc(OCCN2CCCCC2)cc1)c1c(-c2ccc(O)c(Cl)c2)sc2cc(O)ccc12 [Example 5, [2-(3-Chloro-4-hydroxyphenyl)-6-hydroxybenzo[b]thien-3-yl][4-[2-(1-piperidinyl)ethoxy]phenyl]methanone] | 1.2 | 2.4 | 1.3 | 18.6 | 52.6 | 71.5 | 2.3 | -22.6 | 20.7 | 30.2
5 | Cc1ccccc1-c1sc2cc(O)ccc2c1C(=O)c1ccc(OCCN2CCCCC2)cc1 [Example 23, [2-(2-Methylphenyl)-6-hydroxybenzo[b]thien-3-yl] [4-[2-(1-piperidinyl)ethoxy]phenyl]methanone] | 12.0 | 8.4 | 8.1 | 31.7 | 38.6 | 29.3 | 0.7 | 8.5 | 12 | 10.9
